Reference: US20210254056A1, “IDENTIFICATION AND TARGETED MODULATION OF GENE SIGNALING NETWORKS” (CAMP4 THERAPEUTICS CORPORATION, priority 2017, published 2021)

Tested on: hepatocytes
Test: RNA-seq of hepatocytes treated with Phase III failure compounds
Protocol: RNA-seq was performed to determine the effects of the compounds on hepatocytes.
Significance was determined by the criteria of FPKM≥0.5, a log 2(fold-change)≥1, and a […].

Compound: CCC(CC)[C@H](NC(C)=O)[C@@H]1[C@H](O)[C@@H](C(=O)O)C[C@H]1NC(=N)N.O.O.O [peramivir (trihydrate), peramivir]
- RNA-seq results, gene HYLS1 (HYLS1 expression in hepatocytes): −0.16
- RNA-seq results, gene ID1 (ID1 expression in hepatocytes): −0.69
- RNA-seq results, gene IDH1 (IDH1 expression in hepatocytes): 0.19
- RNA-seq results, gene IDH2 (IDH2 expression in hepatocytes): 0
- RNA-seq results, gene IDUA (IDUA expression in hepatocytes): 0.34
- RNA-seq results, gene IFIH1 (IFIH1 expression in hepatocytes): −0.06
- RNA-seq results, gene IFNAR2 (IFNAR2 expression in hepatocytes): 0.01
- RNA-seq results, gene IFT27 (IFT27 expression in hepatocytes): 0.27
- RNA-seq results, gene IFT80 (IFT80 expression in hepatocytes): −0.41
- RNA-seq results, gene IFT122 (IFT122 expression in hepatocytes): −0.16
- RNA-seq results, gene IFT140 (IFT140 expression in hepatocytes): 0.27
- RNA-seq results, gene IFT172 (IFT172 expression in hepatocytes): 0.16
- RNA-seq results, gene IGFALS (IGFALS expression in hepatocytes): 0.11
- RNA-seq results, gene IKBKG (IKBKG expression in hepatocytes): 0.3
- RNA-seq results, gene IL1RN (IL1RN expression in hepatocytes): 0.21
- RNA-seq results, gene IL2RG (IL2RG expression in hepatocytes): 0.6
- RNA-seq results, gene INSR (INSR expression in hepatocytes): 0.28
- RNA-seq results, gene INVS (INVS expression in hepatocytes): −0.03
- RNA-seq results, gene ISYNA1 (ISYNA1 expression in hepatocytes): −0.17
- RNA-seq results, gene ITGB3 (ITGB3 expression in hepatocytes): 0.27
- RNA-seq results, gene IYD (IYD expression in hepatocytes): −0.02
- RNA-seq results, gene JAG1 (JAG1 expression in hepatocytes): −0.1
- RNA-seq results, gene JAK2 (JAK2 expression in hepatocytes): −0.14
- RNA-seq results, gene KCTD7 (KCTD7 expression in hepatocytes): 0.11
- RNA-seq results, gene KCTD11 (KCTD11 expression in hepatocytes): −0.21
- RNA-seq results, gene KHK (KHK expression in hepatocytes): 0.03
- RNA-seq results, gene KIAA0586 (KIAA0586 expression in hepatocytes): −0.2
- RNA-seq results, gene KMT2D (KMT2D expression in hepatocytes): −0.05
- RNA-seq results, gene KPTN (KPTN expression in hepatocytes): 0.22
- RNA-seq results, gene KRIT1 (KRIT1 expression in hepatocytes): −0.1
- RNA-seq results, gene KRT18 (KRT18 expression in hepatocytes): −0.47
- RNA-seq results, gene KYNU (KYNU expression in hepatocytes): 0.16
- RNA-seq results, gene LAMB2 (LAMB2 expression in hepatocytes): 0.01
- RNA-seq results, gene LCAT (LCAT expression in hepatocytes): 0.11
- RNA-seq results, gene LDHB (LDHB expression in hepatocytes): −0.34
- RNA-seq results, gene LDLR (LDLR expression in hepatocytes): 0.24
- RNA-seq results, gene LDLRAP1 (LDLRAP1 expression in hepatocytes): 0.2
- RNA-seq results, gene LIPC (LIPC expression in hepatocytes): −0.29
- RNA-seq results, gene LIPT1 (LIPT1 expression in hepatocytes): −0.12
- RNA-seq results, gene LMNB2 (LMNB2 expression in hepatocytes): 0.14
- RNA-seq results, gene LPA (LPA expression in hepatocytes): 0.07
- RNA-seq results, gene LPIN1 (LPIN1 expression in hepatocytes): 0.22
- RNA-seq results, gene LPIN2 (LPIN2 expression in hepatocytes): 0.1
- RNA-seq results, gene LRBA (LRBA expression in hepatocytes): −0.32
- RNA-seq results, gene LRP5 (LRP5 expression in hepatocytes): 0.15
- RNA-seq results, gene LYRM4 (LYRM4 expression in hepatocytes): 0.19
- RNA-seq results, gene LYST (LYST expression in hepatocytes): −0.14
- RNA-seq results, gene MAN1A1 (MAN1A1 expression in hepatocytes): −0.26
- RNA-seq results, gene MAN2B1 (MAN2B1 expression in hepatocytes): 0.13
- RNA-seq results, gene MAOB (MAOB expression in hepatocytes): −0.16
- RNA-seq results, gene MAT1A (MAT1A expression in hepatocytes): 0.3
- RNA-seq results, gene MBL2 (MBL2 expression in hepatocytes): −0.47
- RNA-seq results, gene MCCC1 (MCCC1 expression in hepatocytes): 0.01
- RNA-seq results, gene MCCC2 (MCCC2 expression in hepatocytes): −0.2
- RNA-seq results, gene MCM6 (MCM6 expression in hepatocytes): −0.05
- RNA-seq results, gene MEN1 (MEN1 expression in hepatocytes): 0.15
- RNA-seq results, gene MET (MET expression in hepatocytes): −0.2
- RNA-seq results, gene MGAT2 (MGAT2 expression in hepatocytes): 0.09
- RNA-seq results, gene MKS1 (MKS1 expression in hepatocytes): 0.17
- RNA-seq results, gene MLH1 (MLH1 expression in hepatocytes): −0.06
- RNA-seq results, gene MMAA (MMAA expression in hepatocytes): −0.35
- RNA-seq results, gene MMAB (MMAB expression in hepatocytes): 0.27
- RNA-seq results, gene MMADHC (MMADHC expression in hepatocytes): −0.24
- RNA-seq results, gene MOCS1 (MOCS1 expression in hepatocytes): 0.13
- RNA-seq results, gene MOGAT2 (MOGAT2 expression in hepatocytes): −0.04
- RNA-seq results, gene MOGS (MOGS expression in hepatocytes): 0.24
- RNA-seq results, gene MPZ (MPZ expression in hepatocytes): 0.41
- RNA-seq results, gene MRPL3 (MRPL3 expression in hepatocytes): −0.06
- RNA-seq results, gene MTHFR (MTHFR expression in hepatocytes): 0.35
- RNA-seq results, gene MTM1 (MTM1 expression in hepatocytes): −0.13
- RNA-seq results, gene MTO1 (MTO1 expression in hepatocytes): −0.03
- RNA-seq results, gene MTR (MTR expression in hepatocytes): −0.08
- RNA-seq results, gene MTRR (MTRR expression in hepatocytes): −0.2
- RNA-seq results, gene MTTP (MTTP expression in hepatocytes): −0.29
- RNA-seq results, gene MVK (MVK expression in hepatocytes): 0.29
- RNA-seq results, gene MYH9 (MYH9 expression in hepatocytes): 0.02
- RNA-seq results, gene MYO5B (MYO5B expression in hepatocytes): 0.2
- RNA-seq results, gene NAGS (NAGS expression in hepatocytes): 0.46
- RNA-seq results, gene NARS2 (NARS2 expression in hepatocytes): −0.14
- RNA-seq results, gene NAT2 (NAT2 expression in hepatocytes): −0.1
- RNA-seq results, gene NBAS (NBAS expression in hepatocytes): −0.22
- RNA-seq results, gene NCF2 (NCF2 expression in hepatocytes): 0.47
- RNA-seq results, gene NEK1 (NEK1 expression in hepatocytes): 0.1
- RNA-seq results, gene NEK8 (NEK8 expression in hepatocytes): 0.29
- RNA-seq results, gene NEU1 (NEU1 expression in hepatocytes): 0.51
- RNA-seq results, gene NFKB2 (NFKB2 expression in hepatocytes): 0.12
- RNA-seq results, gene NFKBIA (NFKBIA expression in hepatocytes): −0.06
- RNA-seq results, gene NFU1 (NFU1 expression in hepatocytes): −0.04
- RNA-seq results, gene NGLY1 (NGLY1 expression in hepatocytes): −0.07
- RNA-seq results, gene NHP2 (NHP2 expression in hepatocytes): 0.21
- RNA-seq results, gene NME1 (NME1 expression in hepatocytes): 0.06
- RNA-seq results, gene NOD2 (NOD2 expression in hepatocytes): 0.33
- RNA-seq results, gene NOP10 (NOP10 expression in hepatocytes): 0.2
- RNA-seq results, gene NOTCH1 (NOTCH1 expression in hepatocytes): 0.16
- RNA-seq results, gene NOTCH2 (NOTCH2 expression in hepatocytes): −0.03
- RNA-seq results, gene NPC1 (NPC1 expression in hepatocytes): 0.3
- RNA-seq results, gene NR1H4 (NR1H4 expression in hepatocytes): 0.22
- RNA-seq results, gene NUBPL (NUBPL expression in hepatocytes): −0.06
- RNA-seq results, gene NUDT7 (NUDT7 expression in hepatocytes): −0.23
- RNA-seq results, gene NUDT12 (NUDT12 expression in hepatocytes): −0.17
- RNA-seq results, gene OAT (OAT expression in hepatocytes): 0.1
- RNA-seq results, gene OPA3 (OPA3 expression in hepatocytes): 0.03
- RNA-seq results, gene OTC (OTC expression in hepatocytes): −0.18
- RNA-seq results, gene PAF1 (PAF1 expression in hepatocytes): 0.09
- RNA-seq results, gene PAH (PAH expression in hepatocytes): 0.05
- RNA-seq results, gene PANK2 (PANK2 expression in hepatocytes): −0.22
- RNA-seq results, gene PAOX (PAOX expression in hepatocytes): 0.16
- RNA-seq results, gene PC (PC expression in hepatocytes): 0.17
- RNA-seq results, gene PCCA (PCCA expression in hepatocytes): 0.13
- RNA-seq results, gene PCK2 (PCK2 expression in hepatocytes): 0.46
- RNA-seq results, gene PCSK9 (PCSK9 expression in hepatocytes): 0.26
- RNA-seq results, gene PCYT1A (PCYT1A expression in hepatocytes): 0.09
- RNA-seq results, gene PDGFRA (PDGFRA expression in hepatocytes): −0.43
- RNA-seq results, gene PDP1 (PDP1 expression in hepatocytes): −0.04
- RNA-seq results, gene PEPD (PEPD expression in hepatocytes): 0.32
- RNA-seq results, gene PEX11A (PEX11A expression in hepatocytes): 0.02
- RNA-seq results, gene PEX12 (PEX12 expression in hepatocytes): 0.11
- RNA-seq results, gene PEX14 (PEX14 expression in hepatocytes): 0.15
